System: library of 8,380 IKZF3 degrons (ZF-eGFP/mCherry reporter) in Jurkat cells
Assay: Pooled library screen (FACS, NGS, limma voom LogFC of positive vs negative read counts)
Format: cell-based, human
In short: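 Cells were lentivirally transduced at MOI <0.3, and mCherry+ cells were sorted 6 days later. Eight days after sorting, cells were treated with DMSO or thalidomide analog for 18 h at 37 °C. mCherry+GFPlow (DMSO-set gate, DAPI-excluded) and remaining cells were sorted, and degrons were PCR-amplified from gDNA and sequenced (>600× coverage, 3 biological replicates).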

Q: What does the source list for `O=C1CCC(N2C(=O)c3ccccc3C2=O)C(=O)N1` (centres unmarked) [A32, 2-(2,6-dioxopiperidin-3-yl)isoindoline-1,3-dione]?
A: A32_logFC (Degron-ID 3102, SEQ ID NO 98, 46F_47Q_49P_50V_52G_53A_54D_55F_67L): 3.4; A32_logFC (Degron-ID 3105, SEQ ID NO 103, 46F_47Q_49P_50V_52G_53A_54G_55F_67L): 3.381; A32_logFC (Degron-ID 3106, SEQ ID NO 132, 46F_47Q_49P_50V_52G_53A_54H_55F_67L): 3.266; A32_logFC (Degron-ID 3107, SEQ ID NO 70, 46F_47Q_49P_50V_52G_53A_54I_55F_67L): 3.527; A32_logFC (Degron-ID 3108, SEQ ID NO 4, 46F_47Q_49P_50V_52G_53A_54K_55F_67L): 3.962; A32_logFC (Degron-ID 3109, SEQ ID NO 75, 46F_47Q_49P_50V_52G_53A_54L_55F_67L): 3.497; A32_logFC (Degron-ID 3110, SEQ ID NO 49, 46F_47Q_49P_50V_52G_53A_54M_55F_67L): 3.582; A32_logFC (Degron-ID 3111, SEQ ID NO 78, 46F_47Q_49P_50V_52G_53A_54N_55F_67L): 3.484; A32_logFC (Degron-ID 3112, SEQ ID NO 5, 46F_47Q_49P_50V_52G_53A_54P_55F_67L): 3.872; A32_logFC (Degron-ID 3116, SEQ ID NO 9, 46F_47Q_49P_50V_52G_53A_54T_55F_67L): 3.794; A32_logFC (Degron-ID 3132, SEQ ID NO 73, 46F_47R_49D_50I_52G_53A_54P_55F_67L): 3.521; A32_logFC (Degron-ID 3192, SEQ ID NO 53, 46F_47R_49E_50I_52G_53A_54P_55F_67L): 3.575; A32_logFC (Degron-ID 3252, SEQ ID NO 104, 46F_47R_49N_50I_52G_53A_54P_55F_67L): 3.38; A32_logFC (Degron-ID 3312, SEQ ID NO 69, 46F_47R_49P_50I_52G_53A_54P_55F_67L): 3.528; A32_logFC (Degron-ID 3352, SEQ ID NO 74, 46F_47R_49P_50V_52G_53A_54P_55F_67L): 3.513; A32_logFC (Degron-ID 3714, SEQ ID NO 136, 46F_47T_49E_50V_52G_53A_54R_55F_67L): 3.256; A32_logFC (Degron-ID 3799, SEQ ID NO 121, 46F_47T_49P_50I_52G_53A_54Y_55F_67L): 3.31; A32_logFC (Degron-ID 3821, SEQ ID NO 117, 46F_47T_49P_50V_52G_53A_54C_55F_67L): 3.33; A32_logFC (Degron-ID 3940, SEQ ID NO 110, 46F_47V_49E_50V_52G_53A_54A_55F_67L): 3.355; A32_logFC (Degron-ID 3954, SEQ ID NO 139, 46F_47V_49E_50V_52G_53A_54R_55F_67L): 3.254; A32_logFC (Degron-ID 3955, SEQ ID NO 63, 46F_47V_49E_50V_52G_53A_54S_55F_67L): 3.54; A32_logFC (Degron-ID 3972, SEQ ID NO 115, 46F_47V_49N_50I_52G_53A_54P_55F_67L): 3.332; A32_logFC (Degron-ID 4032, SEQ ID NO 77, 46F_47V_49P_50I_52G_53A_54P_55F_67L): 3.493; A32_logFC (Degron-ID 6496, SEQ ID NO 102, 46L_47C_49P_50I_52G_53F_54T_55C_67L): 3.382; A32_logFC (Degron-ID 6528, SEQ ID NO 135, 46L_47E_49P_50I_52G_53F_54K_55C_67L): 3.258; A32_logFC (Degron-ID 6536, SEQ ID NO 101, 46L_47E_49P_50I_52G_53F_54T_55C_67L): 3.382; A32_logFC (Degron-ID 6539, SEQ ID NO 113, 46L_47E_49P_50I_52G_53F_54Y_55C_67L): 3.343; A32_logFC (Degron-ID 6700, SEQ ID NO 60, 46L_47Q_49P_50I_52G_53F_54A_55C_67L): 3.551; A32_logFC (Degron-ID 6703, SEQ ID NO 88, 46L_47Q_49P_50I_52G_53F_54E_55C_67L): 3.442; A32_logFC (Degron-ID 6706, SEQ ID NO 122, 46L_47Q_49P_50I_52G_53F_54H_55C_67L): 3.305; A32_logFC (Degron-ID 6707, SEQ ID NO 85, 46L_47Q_49P_50I_52G_53F_54I_55C_67L): 3.453; A32_logFC (Degron-ID 6708, SEQ ID NO 96, 46L_47Q_49P_50I_52G_53F_54K_55C_67L): 3.401; A32_logFC (Degron-ID 6710, SEQ ID NO 59, 46L_47Q_49P_50I_52G_53F_54M_55C_67L): 3.553; A32_logFC (Degron-ID 6713, SEQ ID NO 86, 46L_47Q_49P_50I_52G_53F_54Q_55C_67L): 3.449; A32_logFC (Degron-ID 6714, SEQ ID NO 111, 46L_47Q_49P_50I_52G_53F_54R_55C_67L): 3.346; A32_logFC (Degron-ID 6715, SEQ ID NO 66, 46L_47Q_49P_50I_52G_53F_54S_55C_67L): 3.532; A32_logFC (Degron-ID 6719, SEQ ID NO 81, 46L_47Q_49P_50I_52G_53F_54Y_55C_67L): 3.469; A32_logFC (Degron-ID 6732, SEQ ID NO 89, 46L_47R_49P_50I_52G_53F_54P_55C_67L): 3.438; A32_logFC (Degron-ID 6775, SEQ ID NO 76, 46L_47T_49P_50I_52G_53F_54S_55C_67L): 3.495; A32_logFC (Degron-ID 6776, SEQ ID NO 87, 46L_47T_49P_50I_52G_53F_54T_55C_67L): 3.444; A32_logFC (Degron-ID 6780, SEQ ID NO 57, 46L_47V_49P_50I_52G_53F_54A_55C_67L): 3.558; A32_logFC (Degron-ID 6795, SEQ ID NO 48, 46L_47V_49P_50I_52G_53F_54S_55C_67L): 3.587; A32_logFC (Degron-ID 7840, SEQ ID NO 95, 46L_47Q_49E_50I_52G_53F_54A_55C_67L): 3.402; A32_logFC (Degron-ID 7848, SEQ ID NO 131, 46L_47Q_49E_50I_52G_53F_54K_55C_67L): 3.267; A32_logFC (Degron-ID 7853, SEQ ID NO 124, 46L_47Q_49E_50I_52G_53F_54Q_55C_67L): 3.298; A32_logFC (Degron-ID 7854, SEQ ID NO 52, 46L_47Q_49E_50I_52G_53F_54R_55C_67L): 3.575; A32_logFC (Degron-ID 7855, SEQ ID NO 51, 46L_47Q_49E_50I_52G_53F_54S_55C_67L): 3.576; A32_logFC (Degron-ID 7857, SEQ ID NO 99, 46L_47Q_49E_50I_52G_53F_54V_55C_67L): 3.397; A32_logFC (Degron-ID 7934, SEQ ID NO 128, 46L_47V_49E_50I_52G_53F_54R_55C_67L): 3.277; A32_logFC (Degron-ID 7935, SEQ ID NO 118, 46L_47V_49E_50I_52G_53F_54S_55C_67L): 3.326
